The values that follow come from ChEMBL document CHEMBL5653607, “KN-62, 1-[N,O-bis(5-isoquinolinesulfonyl)-N-methyl-L-tyrosyl]-4-phenylpiperazi ne, a specific inhibitor of Ca2+/calmodulin-dependent protein kinase II” (J Biol Chem, 1990).

Calls of active or inactive are those of the source. The calls are words filed in the database; no cut-off is given here.

For test [1], the system named is PC12D. Description: Inhibition of A23187-induced Ca2+/CaM kinase II 53-kDa autophosphorylation in [32P] orthophosphate labeled rat PC12D cells preincubated with compound for 1 hr followed by A23187 induction and measured after 30 mins by immunoprecipitation method. The format is cell-based. The note with it: dose 0.5-1 µM, time 1.5 hrs.
The target of test [2] is Calcium/calmodulin-dependent protein kinase type II subunit beta (Rattus norvegicus, UniProt P08413). Description: Inhibition of rat brain Ca2+/CaM kinase II beta subunit autophosphorylation measured after 2 mins in presence of [gamma-33P]ATP by SDS-PAGE analysis. It is filed as tissue-based.
Calcium/calmodulin-dependent protein kinase type II subunit beta, sequence (P08413 whole entry): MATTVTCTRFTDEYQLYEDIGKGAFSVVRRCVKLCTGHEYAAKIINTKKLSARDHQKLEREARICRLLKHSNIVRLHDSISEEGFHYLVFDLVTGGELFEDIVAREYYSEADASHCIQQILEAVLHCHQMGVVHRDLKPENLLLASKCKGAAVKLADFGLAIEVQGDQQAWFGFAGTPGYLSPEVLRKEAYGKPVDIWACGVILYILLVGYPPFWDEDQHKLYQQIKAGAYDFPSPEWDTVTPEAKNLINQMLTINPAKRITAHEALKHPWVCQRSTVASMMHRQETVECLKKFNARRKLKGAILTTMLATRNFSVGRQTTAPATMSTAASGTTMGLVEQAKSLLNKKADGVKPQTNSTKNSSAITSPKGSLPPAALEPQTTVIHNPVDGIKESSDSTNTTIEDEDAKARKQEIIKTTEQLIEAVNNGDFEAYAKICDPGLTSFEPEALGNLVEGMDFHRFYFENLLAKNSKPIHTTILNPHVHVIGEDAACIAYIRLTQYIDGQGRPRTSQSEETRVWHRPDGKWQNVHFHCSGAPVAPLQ
Test [3] addresses Protein kinase C (PKC) (Homo sapiens) (UniProt O94806+P41743+P17252+P05129+Q05655+P05771+Q05513+Q02156+P24723+Q15139+Q04759). Put plainly: Inhibition of protein kinase C (unknown origin) at 45 uM relative to control. It is filed as protein assay.
Test [4] is described as follows: Inhibition of rat brain Ca2+/CaM kinase II autophosphorylation assessed as decrease in exogenous substrate phosphorylation at 50 uM incubated for 1 min in presence of [gamma-33P]ATP relative to control. The arrangement: scale not given: the % may be the effect or the level left.
A short description of test [5]: Inhibition of rat brain Ca2+/CaM kinase II autophosphorylation measured at Pi/mg enzyme after phosphorylation at 50 uM incubated for 5 min in presence of [gamma-33P]ATP.
For test [6], the system named is PC12D. Description: Inhibition of A23187-induced Ca2+/CaM kinase II 53-kDa in [32P] orthophosphate labeled rat PC12D cells assessed as increase in phosphorylation at 0.5 to 1 uM preincubated with compound for 1 hr followed by A23187 induction and measured after 30 mins by immunoprecipitation method. It is filed as cell-based. The note with it: dose 0.5-1 µM, time 1.5 hrs.

For test [7], the species on record is Rattus norvegicus. Put plainly: Binding affinity to rat brain Ca2+/CaM kinase II in presence of [gamma-33P]ATP by Sepharose coupled chromatography based analysis. The format is tissue-based.
Test [8] in a line: Inhibition of rat brain Ca2+/CaM kinase II autophosphorylation assessed as incorporation of 32P into myosin kDa light chain measured at Pi/mg enzyme at 50 uM incubated for 1 min in presence of [gamma-33P]ATP.
For test [9], the species on record is Rattus norvegicus. Put plainly: Inhibition of rat brain Ca2+/CaM kinase II autophosphorylation assessed as decrease in exogenous substrate phosphorylation at 50 uM incubated for 1 min in presence of [gamma-33P]ATP measured after phosphorylation. It is filed as tissue-based.
The species named for test [10] is Rattus norvegicus. Put plainly: Competitive inhibition of rat brain Ca2+/CaM kinase II at 0.5 to 2.5 uM in presence of calmodulin and varying concentration of [gamma-33P]ATP. The format is tissue-based. To be noted: dose 0.5-2.5 µM.
The species named for another test is Homo sapiens. Description: Inhibition of Ca2+/CaM kinase II (unknown origin) at 1 uM in presence of [gamma-33P]ATP relative to control.
Test [11] is described as follows: Inhibition of rat brain Ca2+/CaM kinase II independent activity assessed as fold increase in enzyme activity at 50 uM incubated for 1 min.
For test [12], the target named is Calcium/calmodulin-dependent protein kinase type II subunit alpha (Rattus norvegicus, UniProt P11275). Put plainly: Inhibition of rat brain Ca2+/CaM kinase II alpha subunit autophosphorylation measured after 2 mins in presence of [gamma-33P]ATP by SDS-PAGE analysis. The format is tissue-based.
Calcium/calmodulin-dependent protein kinase type II subunit alpha, sequence (P11275 whole entry): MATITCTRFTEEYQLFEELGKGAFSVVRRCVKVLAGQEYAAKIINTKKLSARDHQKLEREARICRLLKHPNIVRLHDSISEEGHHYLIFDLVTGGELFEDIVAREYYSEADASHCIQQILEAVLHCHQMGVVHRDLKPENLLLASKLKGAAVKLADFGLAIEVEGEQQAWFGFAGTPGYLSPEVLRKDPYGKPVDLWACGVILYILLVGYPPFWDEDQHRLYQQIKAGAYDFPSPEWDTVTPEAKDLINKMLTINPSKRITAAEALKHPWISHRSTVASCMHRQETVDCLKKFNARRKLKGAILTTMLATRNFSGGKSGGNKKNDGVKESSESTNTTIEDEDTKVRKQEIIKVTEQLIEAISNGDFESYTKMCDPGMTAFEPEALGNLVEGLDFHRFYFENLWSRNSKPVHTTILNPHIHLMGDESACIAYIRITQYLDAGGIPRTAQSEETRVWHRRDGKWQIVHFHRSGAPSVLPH
Test [13] concerns the target cAMP-dependent protein kinase (PKA) (Homo sapiens) (UniProt P22694+P17612+P22612). Put plainly: Inhibition of protein kinase A (unknown origin) at 45 uM relative to control. It is filed as protein assay.
For another test, the species on record is Gallus gallus. Put plainly: Inhibition of chicken gizzard MLC at 45 uM in presence of [gamma-33P]ATP relative to control.
Test [14] in a line: Competitive inhibition of rat brain Ca2+/CaM kinase II assessed as inhibition constant in presence of [gamma-33P]ATP and varying concentration of calmodulin. The format is tissue-based.
Test [15] relates to PC12D. Put plainly: Inhibition of A23187-induced Ca2+/CaM kinase II 40-kDa in [32P] orthophosphate labeled rat PC12D cells assessed as increase in phosphorylation at 0.5 to 1 uM preincubated with compound for 1 hr followed by A23187 induction and measured after 30 mins by immunoprecipitation method. The format is cell-based. The note with it: dose 0.5-1 µM, time 1.5 hrs.
Test [16] in a line: Inhibition of Ca2+/CaM kinase II (unknown origin) assessed as inhibition constant. Details: species or system Homo sapiens.
Test [17] in a line: Inhibition of MLC (unknown origin) assessed as inhibition constant. Details: species or system Homo sapiens.
Test [18] in a line: Inhibition of Ca2+/CaM kinase II (unknown origin). Details: species or system Homo sapiens.

For orientation: inhibition means the share of the control response that was lost under treatment. As usually defined, the IC50 is the concentration that inhibits the measured activity by half. For orientation: Ki means the dissociation constant of the complex between target and ligand, obtained from inhibition or displacement. For the molecule `CN([C@@H](Cc1ccc(OS(=O)(=O)c2cccc3cnccc23)cc1)C(=O)N1CCN(c2ccccc2)CC1)S(=O)(=O)c1cccc2cnccc12`, the inhibition result with PC12D [1] is “Dose-Dependent Effect”; in [3], 12%; in the test listed under Homo sapiens, 80%; in test [13], 22%; in the test filed under Gallus gallus it was 12%. For the same molecule, the IC50 in test [2] stood at 1 µM; in [12], 0.45 µM. Besides, the Activity in test [4] is reported as 75%; in [5] it was 8.1 nmol; in test [8], 1.8 nmol. Moreover, the result with PC12D [6] and in the test filed under Rattus norvegicus [7] was Active. In addition, the result in the test filed under Rattus norvegicus [9] and with PC12D [15] was inactive. The inhibition result in the test filed under Rattus norvegicus [10] is “inactive”. Further, the “fold change (FC)” value in test [11] amounted to 2.5. Moreover, the Ki in test [14] turned out to be 0.9 µM.
For `NCCCCCCNS(=O)(=O)c1cccc2c(Cl)cccc12`, the Ki is 7.5 µM in [16] and 18 µM in [17]. Moreover, the IC50 in test [18] was determined as 15 µM.
